# Test results: publication PMC11881561 (Antimicrobial Agents and Chemotherapy, 2025)
# pKd: −log10 of the molar value. Like-named read-outs stand apart in the source and are kept apart here.
# Columns and labels:
# KPC-2 WT [1] = biological target: T1, KPC-2 WT (Klebsiella pneumoniae, UniProt Q9F663); type: biochemical
# Method: (§1) Measurements to determine kinetic parameters for hydrolysis, and kinetic parameters for inhibition were performed at ambient temperature in PBS (pH 7.4) containing 0.1 mg/mL bovine serum albumin, using a PowerWaveXS plate reader (BioTek).
# (§2) Second-order rate constants (k2/K) denoting the inactivation efficiency of BLIs were determined by continuously measuring CENTA (100 µM) hydrolysis ([28]) in the presence of various concentrations of BLI. Progress curves were fit to equation 3 using GraphPad Prism, where Ai and A0 are the measured and basal absorbance, vi and vs are initial and final velocity, and t is time in seconds. k2/K was derived with equation 4. Koff was determined by the jump dilution method ([24]). Kd was estimated from the ratio between koff and k2/K.
# (§3) (3) Ai=A0+vst(vi-vs)[1-e^-(kobs)t/kobs]
# (§4) (4) kobs=k-2+(k2/KI)[I]/1+[S]/KM
# KPC-2^V240G = KPC-2^V240G (Klebsiella pneumoniae, UniProt Q9F663, V239G); test: Inhibition kinetics (CENTA hydrolysis, jump dilution), KPC-2 V240G; type: biochemical; conditions: for pKd: estimated from ratio koff / k2/K; for koff: jump dilution
# Method: as §1, §2, §3, §4
# KPC-2^D179Y = KPC-2^D179Y (Klebsiella pneumoniae, UniProt Q9F663, D178Y); test: Inhibition kinetics (CENTA hydrolysis, jump dilution), KPC-2 D179Y; type: biochemical; conditions: for pKd: estimated from ratio koff / k2/K; for koff: jump dilution
# Method: as §1, §2, §3, §4
# KPC-2^D179Y/T243M = KPC-2^D179Y/T243M (Klebsiella pneumoniae, UniProt Q9F663, D178Y/T242M); test: Inhibition kinetics (CENTA hydrolysis, jump dilution), KPC-2 D179Y/T243M; type: biochemical; conditions: for pKd: estimated from ratio koff / k2/K; for koff: jump dilution
# Method: as §1, §2, §3, §4
# KPC-3 WT = KPC-3 WT (Klebsiella pneumoniae, UniProt Q9F663, H272Y); test: Inhibition kinetics (CENTA hydrolysis, jump dilution), KPC-3 wt; type: biochemical; conditions: for pKd: estimated from ratio koff / k2/K; for koff: jump dilution
# Method: as §1, §2, §3, §4
# KPC-3^V240G = KPC-3^V240G (Klebsiella pneumoniae, UniProt Q9F663, H272Y/V239G); test: Inhibition kinetics (CENTA hydrolysis, jump dilution), KPC-3 V240G; type: biochemical; conditions: for pKd: estimated from ratio koff / k2/K; for koff: jump dilution
# Method: as §1, §2, §3, §4
# KPC-3^D179Y = KPC-3^D179Y (Klebsiella pneumoniae, UniProt Q9F663, D178Y/H272Y); test: Inhibition kinetics (CENTA hydrolysis, jump dilution), KPC-3 D179Y; type: biochemical; conditions: for pKd: estimated from ratio koff / k2/K; for koff: jump dilution
# Method: as §1, §2, §3, §4
# KPC-3^D179Y/T243M = KPC-3^D179Y/T243M (Klebsiella pneumoniae, UniProt Q9F663, D178Y/H272Y/T242M); test: Inhibition kinetics (CENTA hydrolysis, jump dilution), KPC-3 D179Y/T243M; type: biochemical; conditions: for pKd: estimated from ratio koff / k2/K; for koff: jump dilution
# Method: as §1, §2, §3, §4
# [2] = system: KPC-3^D179Y and KPC-3^D179Y/T243M; test: Inhibition kinetics, summary for KPC-3 D179Y variants; type: biochemical, Klebsiella pneumoniae; conditions: range over TAN, LED, AVI and both KPC-3 D179Y variants
# Method: as §1, §2, §3, §4
# KPC-2 WT [3] = biological target: T1, KPC-2 WT; conditions: previously reported; cited from earlier work
# [4] = system: E. coli control strain lacking a β-lactamase; test: microbe, parasite or virus in culture; type: cell-based; conditions: Escherichia coli, no KPC expressed, BLIs at fixed 4 μg/mL
# [5] = system: engineered E. coli strain expressing KPC-2 wt; test: microbe, parasite or virus in culture; type: cell-based; conditions: Escherichia coli; KPC-2 wt strain; BLIs at fixed 4 μg/mL
# [6] = system: engineered E. coli strain expressing KPC-2^V240G; test: microbe, parasite or virus in culture; type: cell-based; conditions: Escherichia coli, BLIs at fixed 4 μg/mL
# [7] = system: engineered E. coli strain expressing KPC-2^D179Y; test: microbe, parasite or virus in culture; type: cell-based; conditions: Escherichia coli, BLIs at fixed 4 μg/mL
# [8] = system: engineered E. coli strain expressing KPC-2^D179Y/T243M; test: microbe, parasite or virus in culture; type: cell-based; conditions: Escherichia coli, BLIs at fixed 4 μg/mL
# [9] = system: engineered E. coli strain expressing KPC-3 wt; test: microbe, parasite or virus in culture; type: cell-based; conditions: Escherichia coli; KPC-3 wt strain; BLIs at fixed 4 μg/mL
# [10] = system: engineered E. coli strain expressing KPC-3^V240G; test: microbe, parasite or virus in culture; type: cell-based; conditions: Escherichia coli, BLIs at fixed 4 μg/mL
# [11] = system: engineered E. coli strain expressing KPC-3^D179Y; test: microbe, parasite or virus in culture; type: cell-based; conditions: Escherichia coli, BLIs at fixed 4 μg/mL
# [12] = system: engineered E. coli strain expressing KPC-3^D179Y/T243M; test: microbe, parasite or virus in culture; type: cell-based; conditions: Escherichia coli, BLIs at fixed 4 μg/mL
# [13] = system: E. coli strains expressing KPC-2^D179Y or KPC-2^D179Y/T243M; test: microbe, parasite or virus in culture; type: cell-based
# [14] = pH 7.4, inactivation efficiency, read-out: k2/K
# KPC-3^V240G, sequence (Q9F663 27-293 V239G/H272Y): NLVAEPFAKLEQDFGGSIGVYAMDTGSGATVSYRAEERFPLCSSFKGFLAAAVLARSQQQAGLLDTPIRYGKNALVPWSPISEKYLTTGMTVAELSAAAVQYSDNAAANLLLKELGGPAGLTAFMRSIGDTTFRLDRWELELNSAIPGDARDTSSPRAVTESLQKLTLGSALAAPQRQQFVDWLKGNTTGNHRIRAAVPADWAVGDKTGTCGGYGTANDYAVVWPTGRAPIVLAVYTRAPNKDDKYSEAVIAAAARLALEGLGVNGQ
# KPC-2^V240G, sequence (Q9F663 25-293 V239G): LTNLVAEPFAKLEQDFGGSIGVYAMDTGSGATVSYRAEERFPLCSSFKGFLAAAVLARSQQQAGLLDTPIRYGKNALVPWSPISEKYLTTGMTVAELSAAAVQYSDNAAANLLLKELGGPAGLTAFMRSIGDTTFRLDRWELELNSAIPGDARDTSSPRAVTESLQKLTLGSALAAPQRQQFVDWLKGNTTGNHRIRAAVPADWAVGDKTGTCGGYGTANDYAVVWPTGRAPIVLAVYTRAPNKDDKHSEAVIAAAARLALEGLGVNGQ
# KPC-2^D179Y/T243M, sequence (Q9F663 25-293 D178Y/T242M): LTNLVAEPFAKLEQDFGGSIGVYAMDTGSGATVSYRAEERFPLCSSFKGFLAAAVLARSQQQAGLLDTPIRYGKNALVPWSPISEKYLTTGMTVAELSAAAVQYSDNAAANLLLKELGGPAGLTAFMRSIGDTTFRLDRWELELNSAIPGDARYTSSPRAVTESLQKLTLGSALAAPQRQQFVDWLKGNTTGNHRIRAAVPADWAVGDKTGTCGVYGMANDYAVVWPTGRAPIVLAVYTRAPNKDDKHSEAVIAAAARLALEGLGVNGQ
# KPC-3^D179Y, sequence (Q9F663 27-293 D178Y/H272Y): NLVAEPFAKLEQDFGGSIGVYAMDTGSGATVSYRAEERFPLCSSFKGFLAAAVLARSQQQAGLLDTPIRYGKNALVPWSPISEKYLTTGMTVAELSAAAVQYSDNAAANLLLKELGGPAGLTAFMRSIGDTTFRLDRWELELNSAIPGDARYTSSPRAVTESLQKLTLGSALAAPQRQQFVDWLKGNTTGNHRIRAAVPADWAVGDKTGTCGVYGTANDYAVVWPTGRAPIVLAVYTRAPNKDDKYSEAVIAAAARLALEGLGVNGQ
# T1 sequence (Q9F663 25-293 limits assumed): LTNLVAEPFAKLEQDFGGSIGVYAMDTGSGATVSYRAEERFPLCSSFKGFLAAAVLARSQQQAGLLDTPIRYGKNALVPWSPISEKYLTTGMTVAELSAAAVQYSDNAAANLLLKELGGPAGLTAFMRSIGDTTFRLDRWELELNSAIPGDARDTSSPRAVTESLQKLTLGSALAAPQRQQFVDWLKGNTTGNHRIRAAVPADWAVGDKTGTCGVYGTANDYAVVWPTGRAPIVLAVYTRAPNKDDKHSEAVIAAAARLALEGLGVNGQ
# KPC-3^D179Y/T243M, sequence (Q9F663 27-293 D178Y/T242M/H272Y): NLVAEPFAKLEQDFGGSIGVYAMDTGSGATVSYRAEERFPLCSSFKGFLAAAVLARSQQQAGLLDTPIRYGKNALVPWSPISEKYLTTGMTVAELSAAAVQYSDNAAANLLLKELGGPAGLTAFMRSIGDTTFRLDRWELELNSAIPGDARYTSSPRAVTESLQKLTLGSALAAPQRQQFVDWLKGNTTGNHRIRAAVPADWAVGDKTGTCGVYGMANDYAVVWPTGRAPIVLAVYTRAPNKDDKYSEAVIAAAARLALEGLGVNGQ
# KPC-3 WT, sequence (Q9F663 27-293 H272Y): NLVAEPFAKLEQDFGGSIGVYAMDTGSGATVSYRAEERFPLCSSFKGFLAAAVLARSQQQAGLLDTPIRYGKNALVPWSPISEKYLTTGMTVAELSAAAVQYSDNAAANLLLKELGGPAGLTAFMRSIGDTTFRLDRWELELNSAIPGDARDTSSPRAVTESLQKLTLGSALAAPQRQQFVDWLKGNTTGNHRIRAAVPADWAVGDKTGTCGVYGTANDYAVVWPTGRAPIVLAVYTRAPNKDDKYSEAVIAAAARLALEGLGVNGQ
# KPC-2^D179Y, sequence (Q9F663 25-293 D178Y): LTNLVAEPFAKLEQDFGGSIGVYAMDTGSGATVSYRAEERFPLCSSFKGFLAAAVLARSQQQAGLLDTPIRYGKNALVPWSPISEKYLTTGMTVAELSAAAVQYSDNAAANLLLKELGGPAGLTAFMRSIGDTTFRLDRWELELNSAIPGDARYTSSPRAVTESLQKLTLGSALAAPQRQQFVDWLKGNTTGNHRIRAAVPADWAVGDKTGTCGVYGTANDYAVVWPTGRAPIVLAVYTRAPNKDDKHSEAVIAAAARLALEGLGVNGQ
smiles,measurement,setting,value
"NC(=O)[C@@H]1CC[C@@H]2CN1C(=O)N2OS(=O)(=O)O [AVI, avibactam]",t1/2,KPC-2 WT [1],21.4 ± 0.07 min
same,t1/2,KPC-2^V240G,21.5 ± 0.06 min
same,t1/2,KPC-2^D179Y; KPC-2 D179Y,205 ± 10 min
same,t1/2,KPC-2^D179Y/T243M; KPC-2 D179Y/T243M,198 ± 8 min
same,t1/2,KPC-3 WT,10.1 ± 0.1 min
same,t1/2,KPC-3^V240G,10.7 ± 0.1 min
same,t1/2,KPC-3^D179Y,12.8 ± 0.9 min
same,t1/2,KPC-3^D179Y/T243M,22.5 ± 3.5 min
"CCC(=O)N[C@H]1Cc2cccc(C(=O)O)c2OB1O [LED, ledaborbactam]",t1/2,KPC-2^V240G,32 ± 1 min
same,pKd,KPC-2^V240G,7.92
same,koff,KPC-2^V240G; read-out: koff,0.00037 s⁻¹
same,kinact/KI,KPC-2^V240G; [14],31000 M⁻¹ s⁻¹
same,t1/2,KPC-2^D179Y; KPC-2 D179Y,16.7 ± 0.5 min
same,pKd,KPC-2^D179Y; KPC-2 D179Y,5.89
same,koff,"KPC-2^D179Y; KPC-2 D179Y, read-out: koff",0.00069 s⁻¹
same,kinact/KI,"KPC-2^D179Y; pH 7.4, inactivation efficiency, KPC-2 D179Y, read-out: k2/K",520 M⁻¹ s⁻¹
same,t1/2,KPC-2^D179Y/T243M; KPC-2 D179Y/T243M,18.6 ± 2.7 min
same,pKd,KPC-2^D179Y/T243M; KPC-2 D179Y/T243M,5.82
same,koff,"KPC-2^D179Y/T243M; KPC-2 D179Y/T243M, read-out: koff",0.00063 s⁻¹
same,kinact/KI,"KPC-2^D179Y/T243M; pH 7.4, inactivation efficiency, KPC-2 D179Y/T243M, read-out: k2/K",430 M⁻¹ s⁻¹
same,t1/2,KPC-3 WT,19.6 ± 0.2 min
same,pKd,KPC-3 WT,6.66
same,koff,KPC-3 WT; read-out: koff,0.00059 s⁻¹
same,kinact/KI,KPC-3 WT; [14],2700 M⁻¹ s⁻¹
same,t1/2,KPC-3^V240G,19.3 ± 0.4 min
same,pKd,KPC-3^V240G,7.34
same,koff,KPC-3^V240G; read-out: koff,0.0006 s⁻¹
same,kinact/KI,KPC-3^V240G; [14],13000 M⁻¹ s⁻¹
same,t1/2,KPC-3^D179Y,17.2 ± 0.3 min
same,pKd,KPC-3^D179Y,5.90
same,koff,KPC-3^D179Y; read-out: koff,0.00067 s⁻¹
same,kinact/KI,KPC-3^D179Y; [14],540 M⁻¹ s⁻¹
same,t1/2,KPC-3^D179Y/T243M,18.1 ± 2.2 min
same,pKd,KPC-3^D179Y/T243M,6.21
same,koff,KPC-3^D179Y/T243M; read-out: koff,0.00065 s⁻¹
same,kinact/KI,KPC-3^D179Y/T243M; [14],1000 M⁻¹ s⁻¹
same,reduced inactivation efficiencies relative to KPC-3^wt,[2],2–14 fold
same,pKd,KPC-2 WT [3],8.05
same,k2/K,KPC-2 WT [3],(2.9 ± 0.07) × 10^4 M^−1⋅s^−1
same,koff,KPC-2 WT [3],(2.5 ± 0.1) × 10^−4 s^−1
"CC(C)(O/N=C(\C(=O)N[C@@H]1C(=O)N2C(C(=O)[O-])=C(C[n+]3ccccc3)CS[C@H]12)c1csc(N)n1)C(=O)O [CAZ, ceftazidime]",MIC,[4],0.5 µg/mL
same,MIC,[5],64 µg/mL
same,MIC,[6],> 256 µg/mL
same,MIC,[7],> 256 µg/mL
same,MIC,[8],> 256 µg/mL
same,MIC,[9],256 µg/mL
same,MIC,[10],> 256 µg/mL
same,MIC,[11],> 256 µg/mL
same,MIC,[12],> 256 µg/mL
same,MIC,[13]; Escherichia coli,> 256 µg/mL
"C[C@@H](O)[C@H]1C(=O)N2C(C(=O)O)=C(S[C@@H]3CN[C@H](C(=O)N(C)C)C3)[C@H](C)[C@H]12 [MEM, meropenem]",MIC,[4],0.03 µg/mL
same,MIC,[5],32 µg/mL
same,MIC,[6],8 µg/mL
same,MIC,[7],0.25 µg/mL
same,MIC,[8],0.25 µg/mL
same,MIC,[9],16 µg/mL
same,MIC,[10],16 µg/mL
same,MIC,[11],0.12 µg/mL
same,MIC,[12],0.12 µg/mL
same,MIC increase relative to the control strain,[13],eightfold
"NCCN[C@H]1CC[C@H](CC(=O)N[C@H]2Cc3cccc(C(=O)O)c3OB2O)CC1 [TAN, taniborbactam]",t1/2,KPC-2 WT [1],104 ± 2.3 min
same,pKd,KPC-2 WT [1]; estimated from ratio koff / k2/K,7.96
same,k2/K,"KPC-2 WT [1]; inactivation efficiency, CENTA 100 µM",(0.9 ± 0.02) × 10^4 M^−1⋅s^−1
same,koff,KPC-2 WT [1]; jump dilution,(1.0 ± 0.04) × 10^−4 s^−1
same,t1/2,KPC-2^V240G,106 ± 2.3 min
same,pKd,KPC-2^V240G,7.26
same,k2/K,KPC-2^V240G; inactivation efficiency,(0.2 ± 0.02) × 10^4 M^−1⋅s^−1
same,koff,KPC-2^V240G,(1.1 ± 0.03) × 10^−4 s^−1
same,t1/2,KPC-2^D179Y; KPC-2 D179Y,231 ± 19.4 min
same,pKd,KPC-2^D179Y; KPC-2 D179Y,5.54
same,koff,KPC-2^D179Y; KPC-2 D179Y,(5.0 ± 0.4) × 10^−5 s^−1
same,reduction in k2/K,KPC-2^D179Y; KPC-2^D179Y relative to KPC-2 wt,roughly 500 fold
same,k2/K,"KPC-2^D179Y; inactivation efficiency, KPC-2 D179Y",17 ± 0.7 M^−1⋅s^−1
same,t1/2,KPC-2^D179Y/T243M; KPC-2 D179Y/T243M,222.3 ± 13.7 min
same,pKd,KPC-2^D179Y/T243M; KPC-2 D179Y/T243M,5.47
same,koff,KPC-2^D179Y/T243M; KPC-2 D179Y/T243M,(5.2 ± 0.3) × 10^−5 s^−1
same,reduction in k2/K,KPC-2^D179Y/T243M; KPC-2^D179Y/T243M relative to KPC-2 wt,~600 fold
same,k2/K,"KPC-2^D179Y/T243M; inactivation efficiency, KPC-2 D179Y/T243M",15.2 ± 0.1 M^−1⋅s^−1
same,t1/2,KPC-3 WT,34 ± 4 min
same,pKd,KPC-3 WT,8.05
same,k2/K,KPC-3 WT; inactivation efficiency,(3.9 ± 0.4) × 10^4 M^−1⋅s^−1
same,koff,KPC-3 WT,(3.5 ± 0.4) × 10^−4 s^−1
same,t1/2,KPC-3^V240G,14.4 ± 0.7 min
same,pKd,KPC-3^V240G,7.74
same,k2/K,KPC-3^V240G; inactivation efficiency,(4.4 ± 0.9) × 10^4 M^−1⋅s^−1
same,koff,KPC-3^V240G,(8.0 ± 0.4) × 10^−4 s^−1
same,t1/2,KPC-3^D179Y,14.3 ± 1.2 min
same,pKd,KPC-3^D179Y,6.54
same,k2/K,KPC-3^D179Y; inactivation efficiency,(2.8 ± 0.2) × 10^3 M^−1⋅s^−1
same,koff,KPC-3^D179Y,(8.1 ± 0.7) × 10^−4 s^−1
same,t1/2,KPC-3^D179Y/T243M,14.6 ± 5 min
same,pKd,KPC-3^D179Y/T243M,6.71
same,k2/K,KPC-3^D179Y/T243M; inactivation efficiency,(4.4 ± 0.7) × 10^3 M^−1⋅s^−1
same,koff,KPC-3^D179Y/T243M,(8.5 ± 2.5) × 10^−4 s^−1
same,reduced inactivation efficiencies relative to KPC-3^wt,[2],2–14 fold
